Experimental data from US20110251158A1, “FULLERENE THERAPIES FOR INFLAMMATION AND INHIBITION OF BUILD-UP OF ARTERIAL PLAQUE” (Luna Innovations Incorporated, priority 2008, published 2011).
Read-outs that look alike come from different tables or passages of the source.

Key:
[1] = Solubility; assay type: physicochemical
[2] = tested on: U937 monocyte cells; conditions: for % Viability: human
Protocol: The human monocytic cell line U937 was obtained from the American Type Culture Collection (Manassas, Va., USA). Cells are maintained in RPMI 1640 media enriched with 10% heat-inactivated FBS, 2 mM L-Glutamine, 10 mM HEPES buffer, 0.1 mM non-essential Amino Acids, 1% antibiotic/antimycotic, and 50 uM beta mercaptoethanol at 37° C., 6% CO2.

## C70-Tetrapyridine
[1]; DI water and phosphate buffered saline
  solubility: > 2000 µg/mL

## C70-(DMAE)4
[1]; buffer
  solubility in buffer: moderate solubility

## O=C1O[C@H]([C@@H](O)CO)C(O)=C1O [Vitamin C]
[2]
  toxic effects on the viability of serum-starved cell: did not have toxic effects
[2]; 3 day, 0.67 uM
  % Viability: 98.8% ± 0.06
[2]; 3 day, 6.7 uM
  % Viability: 97.4% ± 1.86
[2]; 3 day, 67 uM
  % Viability: 98.2% ± 0.67
[2]; 6 day, 0.67 uM
  % Viability: 93.8% ± 1.09
[2]; 6 day, 6.7 uM
  % Viability: 91.2% ± 0.33
[2]; 6 day, 67 uM
  % Viability: 90.9% ± 0.07
[2]; 9 day, 0.67 uM
  % Viability: 60.9% ± 1.13
[2]; 9 day, 6.7 uM
  % Viability: 61.8% ± 1.10
[2]; 9 day, 67 uM
  % Viability: 60.7% ± 0.28

## C70-Tetraphosphate
[1]; slightly basic aqueous solution, pH adjusted to 7.4
  dissolution in aqueous solution: remained dissolved
